Experimental findings from patent publication US9730940B2, “Purine inhibitors of human phosphatidylinositol 3-kinase delta” (priority 2012, dated 2017) are described below.

Molecules are shown by their SMILES.

The target in this experiment is PI3K-alpha (Homo sapiens (Human), UniProt P42336). Put plainly: HTRF PI3K biochemical assay, alpha isoform. The settings on record: ratio PI3K-alpha IC50 value/PI3K-delta IC50 value. The source says: HTRF PI3K Biochemical Assay to Measure Intrinsic Potency of Compound Inhibitors
PI3K-alpha, sequence (P42336 whole entry, looked up, canonical isoform): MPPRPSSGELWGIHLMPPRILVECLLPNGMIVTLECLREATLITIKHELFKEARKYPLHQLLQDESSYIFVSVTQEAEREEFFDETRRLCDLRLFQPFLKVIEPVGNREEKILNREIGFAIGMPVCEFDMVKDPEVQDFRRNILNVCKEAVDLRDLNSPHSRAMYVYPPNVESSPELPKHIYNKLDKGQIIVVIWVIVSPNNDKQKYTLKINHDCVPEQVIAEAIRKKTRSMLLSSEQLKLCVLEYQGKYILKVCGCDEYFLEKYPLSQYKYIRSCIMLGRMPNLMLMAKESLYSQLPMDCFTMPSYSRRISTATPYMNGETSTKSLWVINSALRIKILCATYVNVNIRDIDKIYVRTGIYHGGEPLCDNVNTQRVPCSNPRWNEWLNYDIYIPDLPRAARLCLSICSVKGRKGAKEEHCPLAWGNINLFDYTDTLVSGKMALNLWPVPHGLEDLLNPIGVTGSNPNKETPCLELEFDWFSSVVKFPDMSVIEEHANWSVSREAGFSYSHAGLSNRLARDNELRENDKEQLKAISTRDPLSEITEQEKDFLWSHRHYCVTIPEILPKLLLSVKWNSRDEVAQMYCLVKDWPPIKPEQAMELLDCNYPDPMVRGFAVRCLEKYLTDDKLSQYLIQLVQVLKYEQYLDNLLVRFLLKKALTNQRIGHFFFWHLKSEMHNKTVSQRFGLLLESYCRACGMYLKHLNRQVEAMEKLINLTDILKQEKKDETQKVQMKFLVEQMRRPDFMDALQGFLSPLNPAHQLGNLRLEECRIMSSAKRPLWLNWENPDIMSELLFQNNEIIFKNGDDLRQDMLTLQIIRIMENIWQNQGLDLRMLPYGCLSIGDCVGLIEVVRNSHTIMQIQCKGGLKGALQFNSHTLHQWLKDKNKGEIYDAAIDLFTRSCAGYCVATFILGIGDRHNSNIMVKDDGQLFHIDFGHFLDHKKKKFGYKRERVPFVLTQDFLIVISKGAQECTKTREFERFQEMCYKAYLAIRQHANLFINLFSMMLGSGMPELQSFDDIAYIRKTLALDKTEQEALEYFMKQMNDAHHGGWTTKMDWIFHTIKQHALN
PI3K-alpha, sequence (P27986 whole entry partner, looked up, canonical isoform): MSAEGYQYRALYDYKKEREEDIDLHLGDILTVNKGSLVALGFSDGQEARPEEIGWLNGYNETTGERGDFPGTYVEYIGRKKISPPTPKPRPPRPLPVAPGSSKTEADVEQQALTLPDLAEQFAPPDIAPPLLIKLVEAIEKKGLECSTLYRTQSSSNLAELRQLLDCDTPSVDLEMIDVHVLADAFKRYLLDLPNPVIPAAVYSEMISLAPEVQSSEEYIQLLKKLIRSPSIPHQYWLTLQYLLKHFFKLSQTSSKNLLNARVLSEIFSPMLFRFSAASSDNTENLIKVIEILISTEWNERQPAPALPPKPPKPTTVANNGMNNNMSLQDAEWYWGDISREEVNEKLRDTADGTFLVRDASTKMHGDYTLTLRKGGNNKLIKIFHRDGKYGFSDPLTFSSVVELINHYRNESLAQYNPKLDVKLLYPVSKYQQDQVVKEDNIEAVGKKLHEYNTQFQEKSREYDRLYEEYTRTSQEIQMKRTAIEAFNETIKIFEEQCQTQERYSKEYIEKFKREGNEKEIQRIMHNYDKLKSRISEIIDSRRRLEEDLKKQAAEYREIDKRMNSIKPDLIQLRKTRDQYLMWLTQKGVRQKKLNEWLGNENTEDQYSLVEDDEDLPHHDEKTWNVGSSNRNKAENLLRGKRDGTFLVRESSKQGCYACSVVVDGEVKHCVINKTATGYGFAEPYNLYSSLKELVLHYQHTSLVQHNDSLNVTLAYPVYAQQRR
The PI3-Kinase biochemical assays were developed to measure the intrinsic potency and compound dependent inhibition of the alpha, beta, delta, and gamma PI3K isoform enzymes. This assay was developed and further optimized from a kit produced by Upstate (Millipore catalog #33-047) and has been configured for HTS and SAR screening. Briefly, this procedure exploits the exquisite specificity and high affinity binding of enzyme reaction substrate phosphatidyl(3,4,5)triphosphate (PIP3) to the GRP1 pleckstrin homology (PH) domain to generate the signal. In the absence of PIP3, an HTRF (Homogeneous Time-Resolved Fluorescence energy transfer) complex is formed consisting of europium (Eu)-labeled anti-GST, GST tagged GRP1-PH domain, biotin-PIP3 and streptavidin conjugated APC. The native PIP3 produced by PI3-Kinase activity disrupts in a competitive manner the biotin-PIP3 from the PH domain, resulting in the loss of energy transfer (HTRF complex) and a decrease in the signal. The format of this assay is the same for all 4 isoforms of PI3K; the differences lie in the concentration of enzyme used to achieve robust assay window. The alpha, beta, and delta assays are run at 0.5, 1, and 0.3 nM enzymes and the gamma assay is run at 5 nM enzyme. The ATP concentration is 100 uM in the alpha, beta, and delta assays and 50 uM ATP in the gamma assay. All reactions are run at 5 uM PIP2.
Compounds are serially diluted (3-fold in 100% DMSO) across a 384-well polypropylene source plated from column 3 to column 12 and column 13 to column 22, to yield 10 concentration dose response for each test compound. Columns 1, 2, 23 and 24 contain either only DMSO or pharmacological known control inhibitor.
The PI3-Kinase biochemical assay was optimized using the HTRF kit provided by Upstate (Millipore). The assay kit contains six reagents: 1) 4× Reaction Buffer; 2) native PIP2 (substrate); 3) Stop (EDTA); 4) Detection Mix A (Streptavidin-APC); 5) Detection Mix B (Eu-labeled Anti-GST plus GST-tagged PH-domain); 6) Detection Mix C.
PI3Kinase Reaction Buffer is prepared by dilution the stock 1:4 with de-ionized water. […] Enzyme addition and compound pre-incubation are initiated by the addition of 1.25 ul of PI3K (at twice its final concentration) in the 1× reaction buffer to all wells using a BioRaptor. Plates are incubated at room temperature for 15 minutes. Reactions are initiated by addition of 1.25 ul of 2× substrate solution (PIP2 and ATP in 1× reaction buffer) using BioRaptor. Plates are incubated in humidified chamber at room temperature for one hour. Reactions are quenched by addition of 0.625 uL of stop solution to all wells using the BioRaptor. The quenched reactions are then processed to detect product formation by adding 0.625 uL of Detection Solution to all wells using the BioRaptor (Detection mix C, Detection Mix A, and Detection Mix B combined together in an 18:1:1 ratio prepared 2 hours prior to use).
The loss of the HTRF signal is due to the displacement of biotinylated-PIP3 from the PH domain by the PI3K-dependent conversion of PIP2 to PIP3. This loss of signal is nonlinear with respect to both increasing product and time. This non-linear detection will impact accuracy of IC50 calculations; therefore, there is a need for a correction factor to obtain more accurate IC50 values. This correction is derived from a PIP3 standard curve run in a separate assay plate. All data were calculated using the ratio of acceptor (APC) to donor (Europium) fluorescence in each well of the assay plate. […] An IC50 was then calculated fitting the % inhibition data to the equation: % inhibition=min+(Max−min)/1+([inhibitor]/IC50)^n) where min is the % inhibition […], max is the signal in DMSO control, and n is the Hill slope.
(In general: Time-resolved FRET reads energy transfer from a long-lived donor to a nearby acceptor.)
As for `CCn1ncc(-c2nc3c(O[C@H]4CCN(C(=O)OCC(C)(C)C)C4)ncnc3n2C)c1C` [Compound 1-9, 2,2-dimethylpropyl (3S)-3-{[8-(1-ethyl-5-methyl-1H-pyrazol-4-yl)-9-methyl-9H-purin-6-yl]oxy}pyrrolidine-1-carboxylate], the “Relative Selectivity versus PI3Kalpha” value was more than 10.
Regarding `COc1ncc(-c2nc3c(O[C@H]4CCN(C(=O)OC(C)(C)C)C4)ncnc3n2C)cc1C` [Compound 1-13, tert-butyl (3S)-3-{[8-(6-methoxy-5-methylpyridin-3-yl)-9-methyl-9H-purin-6-yl]oxy}pyrrolidine-1-carboxylate], the “Relative Selectivity versus PI3Kalpha” value is reported as more than 10.
For the compound `Cc1ncc(-c2nc3c(OC4CCN(C(=O)OC(C)(C)C)C4)ncnc3n2C)cn1` [Compound 1-14, terl-butyl (3S)-3-{[9-methyl-8-(2-methylpyrimidin-5-yl)-9H-purin-6-yl]oxy}pyrrolidine-1-carboxylate], the “Relative Selectivity versus PI3Kalpha” value is more than 10.
Consider `Cn1c(-c2ccc(-n3cccn3)cc2)nc2c(O[C@H]3CCN(C(=O)OC(C)(C)C)C3)ncnc21` [Compound 1-15, tert-butyl (3S)-3-({9-methyl-8-[4-(1H-pyrazol-1-yl)phenyl]-9H-purin-6-yl}oxy)pyrrolidine-1-carboxylate], for which the “Relative Selectivity versus PI3Kalpha” value is more than 10.
As to `Cc1nn(C)cc1-c1nc2c(O[C@H]3CCN(C(=O)OC(C)(C)C)C3)ncnc2n1C` [Compound 1-16, tert-butyl (3S)-3-{[8-(1,3-dimethyl-1H-pyrazol-4-yl)-9-methyl-9H-purin-6-yl]oxy}pyrrolidine-1-carboxylate], the “Relative Selectivity versus PI3Kalpha” value was more than 9.
As to `Cc1ncc(-c2nc3c(O[C@H]4CCN(C(=O)OC(C)(C)C)C4)ncnc3n2C)n1C` [Compound 1-17, tert-butyl (3S)-3-{[8-(1,2-dimethyl-1H-imidazol-5-yl)-9-methyl-9H-purin-6-yl]oxy}pyrrolidine-1-carboxylate], the “Relative Selectivity versus PI3Kalpha” value was more than 10.
Then `Cn1c(-c2ccc(O)cc2)nc2c(O[C@H]3CCN(C(=O)OC(C)(C)C)C3)ncnc21` [Compound 1-18, tert-butyl (3S)-3-{[8-(4-hydroxyphenyl)-9-methyl-9H-purin-6-yl]oxy}pyrrolidine-1-carboxylate], with more than 10.
Consider `Cn1c(-c2cn[nH]c2)nc2c(O[C@H]3CCN(C(=O)OC(C)(C)C)C3)ncnc21` [Compound 1-19, tert-butyl (3S)-3-{[9-methyl-8-(1H-pyrazol-4-yl)-9H-purin-6-yl]oxy}pyrrolidine-1-carboxylate], for which the “Relative Selectivity versus PI3Kalpha” value is recorded as more than 10.
The result for `CN(C)c1ccc(-c2nc3c(O[C@H]4CCN(C(=O)OC(C)(C)C)C4)ncnc3n2C)cn1` [Compound 1-20, tert-butyl (3S)-3-{[8-(6-(dimethylamino)pyridin-3-yl]-9-methyl-9H-purin-6-yl}oxy)pyrrolidine-1-carboxylate] reads more than 10; that for `Cc1cc2cccc(-c3nc4c(O[C@H]5CCN(C(=O)OC(C)(C)C)C5)ncnc4n3C)c2[nH]1` [Compound 1-21, tert-butyl (3S)-3-{[9-methyl-8-(2-methyl-1H-indol-7-yl)-9H-purin-6-yl]oxy}pyrrolidine-1-carboxylate], more than 10; that for `Cn1c(-c2cnn3cccnc23)nc2c(O[C@H]3CCN(C(=O)OC(C)(C)C)C3)ncnc21` [Compound 1-22, tert-butyl (3S)-3-[(9-methyl-8-pyrazolo[1,5-a]pyrimidin-3-yl-9H-purin-6-yl)oxy]pyrrolidine-1-carboxylate], more than 10.
In the case of `CC(=O)Nc1ccc(-c2nc3c(O[C@H]4CCN(C(=O)OC(C)(C)C)C4)ncnc3n2C)cc1` [Compound 1-23, tert-butyl (3S)-3-({8-[4-(acetylamino)phenyl]-9-methyl-9H-purin-6-yl}oxy)pyrrolidine-1-carboxylate], the “Relative Selectivity versus PI3Kalpha” value was more than 10.
With `Cn1c(-c2ccc(N3CCOCC3)nc2)nc2c(O[C@H]3CCN(C(=O)OC(C)(C)C)C3)ncnc21` [Compound 1-24, tert-butyl (3S)-3-{[9-methyl-8-(6-morpholin-4-ylpyridin-3-yl)-9H-purin-6-yl]oxy}pyrrolidine-1-carboxylate], the “Relative Selectivity versus PI3Kalpha” value is more than 2.
`Cn1c(-c2ccc(-n3ccnc3)cc2)nc2c(O[C@H]3CCN(C(=O)OC(C)(C)C)C3)ncnc21` [Compound 1-25, tert-butyl (3S)-3-({8-[4-(1H-imidazol-1-yl)phenyl]-9-methyl-9H-purin-6-yl}oxy)pyrrolidine-1-carboxylate]: the “Relative Selectivity versus PI3Kalpha” value was more than 10.
As to `Cc1n[nH]cc1-c1nc2c(O[C@H]3CCN(C(=O)OC(C)(C)C)C3)ncnc2n1C` [Compound 1-26, tert-butyl (3S)-3-{[9-methyl-8-(3-methyl-1H-pyrazol-4-yl)-9H-purin-6-yl]oxy}pyrrolidine-1-carboxylate], the “Relative Selectivity versus PI3Kalpha” value is given as more than 10.
`Cn1c(-c2ccc(N3CCCC3)nc2)nc2c(O[C@H]3CCN(C(=O)OC(C)(C)C)C3)ncnc21` [Compound 1-27, tert-butyl (3S)-3-{[9-methyl-8-(6-pyrrolidin-1-ylpyridin-3-yl)-9H-purin-6-yl]oxy}pyrrolidine-1-carboxylate]: the “Relative Selectivity versus PI3Kalpha” value is listed as more than 10.
`Cn1c(-c2cncc3ccccc23)nc2c(O[C@H]3CCN(C(=O)OC(C)(C)C)C3)ncnc21` [Compound 1-28, tert-butyl (3S)-3-[(8-isoquinolin-4-yl-9-methyl-9H-purin-6-yl)oxy]pyrrolidine-1-carboxylate]: the “Relative Selectivity versus PI3Kalpha” value is reported as more than 10.
Then `Cn1c(-c2ccc3[nH]ncc3c2)nc2c(O[C@H]3CCN(C(=O)OC(C)(C)C)C3)ncnc21` [Compound 1-29, tert-butyl (3S)-3-{[8-(1H-indazol-5-yl)-9-methyl-9H-purin-6-yl]oxy}pyrrolidine-1-carboxylate], with more than 10.
With `CCn1ncc(-c2nc3c(OC4CC(C)N(C(=O)OC(C)(C)C)C4)ncnc3n2C)c1C` (stereo not drawn) [Compound 1-30, tert-butyl 4-((8-(1-ethyl-5-methyl-1H-pyrazol-4-yl)-9-methyl-9H-purin-6-yl)oxy)-2-methylpyrrolidine-1-carboxylate], the “Relative Selectivity versus PI3Kalpha” value came out at 3.
The result for `COC1CC(c2nc3c(OC4CCN(C(=O)OC(C)(C)C)C4)ncnc3n2C)C1` [Compound 1-31, (S)-tert-butyl 3-((8-(3-methoxycyclobutyl)-9-methyl-9H-purin-6-yl)oxy)pyrrolidine-1-carboxylate] reads more than 5.
The result for `Cn1cnc2c(O[C@H]3CCN(C(=O)OC(C)(C)C)C3)ncnc21` [Compound 1-32, (S)-tert-butyl 3-((9-methyl-9H-purin-6-yl)oxy)pyrrolidine-1-carboxylate] reads more than 7.
As for `Cc1n[nH]c2ncc(-c3nc4c(O[C@H]5CCN(C(=O)OC(C)(C)C)C5)ncnc4n3C)cc12` [Compound 1-33, (S)-tert-butyl 3-((9-methyl-8-(3-methyl-1H-pyrazolo[3,4-b]pyridin-5-yl)-9H-purin-6-yl)oxy}pyrrolidine-1-carboxylate], the “Relative Selectivity versus PI3Kalpha” value is more than 10.
On to `CCn1c(-c2cnc(OC)c(C)c2)nc2c(O[C@H]3CCN(C(=O)OC(C)(C)C)C3)ncnc21` [Compound 1-34, tert-butyl (3S)-3-{[9-ethyl-8-(6-methoxy-5-methylpyridin-3-yl)-9H-purin-6-yl]oxy}pyrrolidine-1-carboxylate], for which the “Relative Selectivity versus PI3Kalpha” value is more than 10.
As for `CCn1c(-c2cnc(C(C)(C)C)s2)nc2c(O[C@H]3CCN(C(=O)OC(C)(C)C)C3)ncnc21` [Compound 1-35, tert-butyl (3S)-3-{[8-(2-tert-butyl-1,3-thiazol-5-yl)-9-ethyl-9H-purin-6-yl]oxy}pyrrolidine-1-carboxylate], the “Relative Selectivity versus PI3Kalpha” value is recorded as more than 10.
